The source of these data is patent US12643886B2 (Ontario Institute for Cancer Research (OICR), priority 2021, dated 2026).

Assay [1] has as its system MDA-MB-231 cells. As to the kind of experiment: Tumor cell growth inhibition assay (ATPlite, 5 days). Type of assay: cell-based. The following applies: Homo sapiens, 120 h; breast tumor cell line MDA-MB-231, 5 days. How it is done: MDA-MB-231 cells were seeded into a 384-well plate at 1,000 cells/well in 50 μl medium (Alpha-MEM containing 10% FBS, […] Normocin, Invivogen and […] Gentamycin, Invitrogen). Plates were then incubated overnight for the cells to attach. An HP D300 digital dispenser was used to dose cells with DMSO or test compounds across a 16-point range of concentrations (high dose of 10 uM to low dose of 5 nM). Plates were incubated in a humidified 5% CO2 incubator at 37° C. After 5 days, plates were removed from the incubator and equilibrated to room temperature. An equal volume of ATPlite assay reagent was then added to each well, and samples processed according to manufacturer's instructions (Perkin Elmer). Luminescent signals were then measured using an Envision plate reader equipped with a US-Luminescence detector.

For assay [2], the target named is T1, NUAK1 (Homo sapiens, UniProt O60285).
T1 sequence (O60285 1-661): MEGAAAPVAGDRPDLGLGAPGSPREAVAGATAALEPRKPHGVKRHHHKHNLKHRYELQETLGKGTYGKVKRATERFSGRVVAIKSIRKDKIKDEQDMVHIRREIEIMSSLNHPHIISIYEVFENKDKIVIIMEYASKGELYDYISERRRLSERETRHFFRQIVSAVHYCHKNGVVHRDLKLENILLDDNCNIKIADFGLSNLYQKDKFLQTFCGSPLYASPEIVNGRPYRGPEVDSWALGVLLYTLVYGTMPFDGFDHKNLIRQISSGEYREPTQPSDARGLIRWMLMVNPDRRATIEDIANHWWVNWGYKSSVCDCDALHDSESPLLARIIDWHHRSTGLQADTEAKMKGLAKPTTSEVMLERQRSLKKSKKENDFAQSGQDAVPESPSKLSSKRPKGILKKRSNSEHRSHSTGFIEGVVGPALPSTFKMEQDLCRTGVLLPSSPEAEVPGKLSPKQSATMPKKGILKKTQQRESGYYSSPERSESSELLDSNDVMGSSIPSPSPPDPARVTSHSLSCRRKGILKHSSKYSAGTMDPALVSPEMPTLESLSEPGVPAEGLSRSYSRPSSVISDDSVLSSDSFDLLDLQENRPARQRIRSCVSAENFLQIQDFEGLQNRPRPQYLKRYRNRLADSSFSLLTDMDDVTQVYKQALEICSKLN
As to the kind of experiment: Counter-screen against NUAK1. Type of assay: biochemical. The method, boiled down: (§1)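 Full-length recombinant NUAK2 incubated 40 min at room temperature in 8 mM MOPS pH 7.0, 0.2 mM EDTA, 10 mM magnesium acetate, 300 μM peptide substrate and 33P-ATP. Stopped with 0.5% phosphoric acid; filter-bound label counted by scintillation. IC50 reported as ranges; NUAK1 and Aurora A served as counter-screens.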
For orientation: Counterscreens check selectivity or assay interference.

Assay [3] concerns the target T2, Aurora A (Homo sapiens, UniProt O14965).
T2 sequence (O14965 1-403): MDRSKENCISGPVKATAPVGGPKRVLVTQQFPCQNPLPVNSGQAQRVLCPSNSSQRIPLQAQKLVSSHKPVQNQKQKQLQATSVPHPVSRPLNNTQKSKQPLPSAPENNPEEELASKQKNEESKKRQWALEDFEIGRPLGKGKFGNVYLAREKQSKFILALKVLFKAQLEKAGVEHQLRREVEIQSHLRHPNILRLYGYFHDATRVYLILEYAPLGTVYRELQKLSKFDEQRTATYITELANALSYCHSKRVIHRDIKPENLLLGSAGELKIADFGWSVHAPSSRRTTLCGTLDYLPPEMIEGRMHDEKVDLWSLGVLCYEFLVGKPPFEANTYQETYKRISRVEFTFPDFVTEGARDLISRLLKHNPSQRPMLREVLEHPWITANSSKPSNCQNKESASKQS
As to the kind of experiment: Counter-screen against Aurora A. The following applies: read-out: AUR-A (IC50). Format: biochemical. The method, boiled down: as §1

Assay [4] addresses T3, NUAK2 (h) (Homo sapiens, UniProt Q9H093).
T3 construct: This assay was done radiometrically using full-length, recombinant enzyme; purchased Eurofins
T3 sequence (Q9H093 1-628): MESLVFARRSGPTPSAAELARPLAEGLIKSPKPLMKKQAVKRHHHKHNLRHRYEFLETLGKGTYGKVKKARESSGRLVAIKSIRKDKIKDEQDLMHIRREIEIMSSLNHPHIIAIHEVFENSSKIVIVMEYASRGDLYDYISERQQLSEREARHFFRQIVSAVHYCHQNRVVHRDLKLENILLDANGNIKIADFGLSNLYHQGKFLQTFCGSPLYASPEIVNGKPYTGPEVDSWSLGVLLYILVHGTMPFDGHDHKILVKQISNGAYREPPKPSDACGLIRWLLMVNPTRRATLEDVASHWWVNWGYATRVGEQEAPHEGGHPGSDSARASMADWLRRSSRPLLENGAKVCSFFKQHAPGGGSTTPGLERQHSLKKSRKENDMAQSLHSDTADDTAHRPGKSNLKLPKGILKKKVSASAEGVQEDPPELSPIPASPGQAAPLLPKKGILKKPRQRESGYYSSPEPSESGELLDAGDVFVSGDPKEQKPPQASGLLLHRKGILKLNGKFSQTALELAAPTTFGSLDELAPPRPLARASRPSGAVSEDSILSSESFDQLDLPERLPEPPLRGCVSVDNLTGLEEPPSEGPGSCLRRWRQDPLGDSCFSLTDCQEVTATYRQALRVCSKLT
As to the kind of experiment: NUAK2 enzymatic assay (radiometric, Eurofins). Type of assay: biochemical. Conditions: full-length recombinant enzyme. The method, boiled down: as §1

Assay [5] deals with Clover-YAP expressing MDA-MB-231 cells. As to the kind of experiment: Cell-based YAP/TAZ localization assay (live imaging of Clover-YAP). The following applies: MDA-MB-231 breast cancer cell line, FIG. 1. Here is the method: Compounds of the application were tested for their ability to inhibit localization of YAP/TAZ to the nucleus of cells using an assay generally described in Nature Communications, 2018, 9:3510. Live cell imaging of Clover-YAP expressing MDA-MB-231 cells was carried out using a custom WAVE-FX-X1 spinning disc confocal system (Quorum Technologies) with a modified Yokogawa CSU-X1 scanhead on an AxioObserver Z1 inverted microscope (Carl Zeiss) with a ×40 NA 1.2 Plan Apochromat (Carl Zeiss) objective. Cells were plated in a 35 mm glass-bottom dish (Mat-Tek, P35G-1.5-14-C) and were maintained in a stage-top incubator at 37° C. and 5% CO2 during imaging. Cells were cultured in phenol-red free RPMI medium (Thermo Fisher Scientific, 11835030) with 5% FBS and 200 nM SiR-DNA (Spirochrom, SC007) was added 1 h prior to imaging to visualize the nuclei. Localization of Clover-YAP was monitored every 10 min for 2 h. Volocity software was used for image acquisition and processing.

Assay [6] concerns several cancer cell lines. Conditions: PCR; cited from earlier work.
For assay [7], the system named is several cancer cell lines. The following applies: immunofluorescence; cited from earlier work.

The term IC50 denotes the midpoint of a concentration-inhibition curve. Regarding `COc1cc2c(cc1Nc1ncc(C(F)(F)F)c(Nc3cccc4c3C(=O)NC4)n1)CCNC2` [Compound I-27], the concentration for half-maximal inhibition (IC50) in assay [1] is 36 nM; in assay [2], 11 to 100 nM; in assay [3], more than 1000 nM; in assay [4] it was 11 to 100 nM.
In the case of `CCN1CCN(C2CCN(c3ccc(Nc4ncc(C(F)(F)F)c(Nc5cccc6c5C(=O)NC6)n4)c(OC(F)F)c3)CC2)CC1` [Compound I-33, 7-((2-((2-(difluoromethoxy)-4-(4-(4-ethylpiperazin-1-yl)piperidin-1-yl)phenyl)amino)-5-(trifluoromethyl)pyrimidin-4-yl)amino)isoindolin-1-one], the IC50 in assay [1] is 38 nM; in assay [2], 11 to 100 nM; in assay [3], 101 to 1000 nM; in assay [4] it was 11 to 100 nM.
As for `O=C1NCc2cccc(Nc3nc(Nc4ccc(N5CCNCC5)cc4OC(F)F)ncc3C(F)(F)F)c21` [Compound I-34, 7-((2-((2-(difluoromethoxy)-4-(piperazin-1-yl)phenyl)amino)-5-(trifluoromethyl)pyrimidin-4-yl)amino)isoindolin-1-one], the half-maximal inhibitory concentration (IC50) in assay [1] was 32 nM; in assay [2] it was 11 to 100 nM; in assay [3] it was more than 1000 nM; in assay [4] it was 11 to 100 nM. In addition, in assay [5], the “Inhibition of nuclear localization of YAP/TAZ” value is recorded as “potently inhibit nuclear localization of YAP/TAZ”.
In the case of `O=C1NCc2cccc(Nc3nc(Nc4ccc(N5C[C@@H]6C[C@H]5CN6)cc4OC(F)F)ncc3C(F)(F)F)c21` [Compound I-54, 7-((2-((4-((1S,4S)-2,5-diazabicyclo[2.2.1]heptan-2-yl)-2-(difluoromethoxy)phenyl)amino)-5-(trifluoromethyl)pyrimidin-4-yl)amino)isoindolin-1-one], the IC50 in assay [1] is 48 nM; in assay [2], 11 to 100 nM; in assay [3], more than 1000 nM; in assay [4] it was 0.1 to 10 nM.
In the case of `O=C1NCc2cccc(Nc3nc(Nc4ccc(N5C[C@H]6CNC[C@H]6C5)cc4OC(F)F)ncc3C(F)(F)F)c21` [Compound I-56, 7-((2-((2-(difluoromethoxy)-4-((3aR,6aS)-hexahydropyrrolo[3,4-c]pyrrol-2(1H)-yl)phenyl)amino)-5-(trifluoromethyl)pyrimidin-4-yl)amino)isoindolin-1-one], the IC50 was 43 nM in assay [1], 11 to 100 nM in assay [2], 101 to 1000 nM in assay [3] and 11 to 100 nM in assay [4].
For the compound `O=C1NCc2cccc(Nc3nc(Nc4ccc(N5C[C@H]6CC[C@@H](C5)N6)cc4OC(F)F)ncc3C(F)(F)F)c21` [Compound I-59, 7-((2-((4-((1R,5S)-3,8-diazabicyclo[3.2.1]octan-3-yl)-2-(difluoromethoxy)phenyl)amino)-5-(trifluoromethyl)pyrimidin-4-yl)amino)isoindolin-1-one], the 50% inhibitory concentration (IC50) is 54 nM in assay [1], 11 to 100 nM in assay [2], 101 to 1000 nM in assay [3] and 0.1 to 10 nM in assay [4].
Take `COc1cc(CN(C)C)ccc1Nc1ncc(Cl)c(Nc2cccc3c2C(=O)NC3)n1` [Compound I-63, 7-((5-chloro-2-((4-((dimethylamino)methyl)-2-methoxyphenyl)amino)pyrimidin-4-yl)amino)isoindolin-1-one]: the IC50 in assay [1] was 398 nM; in assay [2], 11 to 100 nM; in assay [3], 101 to 1000 nM; in assay [4], 0.1 to 10 nM.
With `CC(C)N1CCN(C2CCN(c3ccc(Nc4ncc(Cl)c(Nc5cccc6c5C(=O)NC6)n4)c(OC(F)F)c3)CC2)CC1` [Compound I-81, 7-((5-chloro-2-((2-(difluoromethoxy)-4-(4-(4-isopropylpiperazin-1-yl)piperidin-1-yl)phenyl)amino)pyrimidin-4-yl)amino)isoindolin-1-one], the values for the IC50 in assay [2], in assay [3] and in assay [4] were 11 to 100 nM, 101 to 1000 nM and 11 to 100 nM, respectively.
On to `CN1C[C@@H]2C[C@H]1CN2c1ccc(Nc2ncc(C(F)(F)F)c(Nc3cccc4c3C(=O)NC4)n2)c(OC(F)F)c1` [Compound I-82, 7-((2-((2-(difluoromethoxy)-4-((1S,4S)-5-methyl-2,5-diazabicyclo[2.2.1]heptan-2-yl)phenyl)amino)-5-(trifluoromethyl)pyrimidin-4-yl)amino)isoindolin-1-one], for which the values for the IC50 in assay [2], in assay [3] and in assay [4] were 11 to 100 nM, 101 to 1000 nM and 0.1 to 10 nM, respectively.
As to `Cc1cnc(Nc2ccc(N3CCN(C)CC3)cc2OC(F)F)nc1Nc1cccc2c1C(=O)NC2` [Compound I-83, 7-((2-((2-(difluoromethoxy)-4-(4-methylpiperazin-1-yl)phenyl)amino)-5-methylpyrimidin-4-yl)amino)isoindolin-1-one], the results for the 50% inhibitory concentration (IC50) in assay [2], in assay [3] and in assay [4] were 11 to 100 nM, more than 1000 nM and 0.1 to 10 nM, respectively.
`CN1CCN(c2ccc(Nc3ncc4cc(C#N)c(=O)n(C5CCCC5)c4n3)cc2)CC1` [ON123300]: the “YAP/TAZ transcriptional function (target gene expression)” value in assay [6] is on record as “attenuates transcriptional function”. For the same compound, in assay [7], the YAP/TAZ nuclear localization entry is reported as “a block of YAP/TAZ nuclear localization”.
As for `CCC(=O)Nc1cccc(Oc2nc(Nc3ccc(N4CCN(C)CC4)cc3OC)ncc2Cl)c1` [WZ4003], the “YAP/TAZ transcriptional function (target gene expression)” value in assay [6] is reported as “attenuates transcriptional function”. Also, the YAP/TAZ nuclear localization entry in assay [7] is reported as “a block of YAP/TAZ nuclear localization”.
